According to patent US6930185B2, “Melanin-concentrating hormone antagonist” (Takeda Chemical Industries, Ltd., priority 2000, dated 2005):

Molecular target: SLC-1 (UniProt Q99705)
Experiment: Determination of antagonist activity using GTPγS binding assay
Assay type: biochemical, human/rat
Conditions: inhibition of MCH-stimulated [35S]-Guanosine 5′-(γ-thio) triphosphate binding, SLC-1 expressing CHO cell membrane fractions
Experimental: Determination of Antagonist Activity Using GTPYS Binding Assay of Test Compound
Membrane fraction was prepared by the following method, using the human SLC-1 expressing CHO cell clone 57 obtained in Reference Example 1-10, and the rat SLC-1 expressing CHO cell clone 44 obtained in Reference Example 1-4.
The human and rat SLC-1 expressing CHO cells (1×10^8) were scraped in buffer saline phosphate (pH 7.4) to which 5 mM EDTA (ethylenediaminetetraacetic acid) had been added, and centrifuged. 10 ml of homogenized buffer (10 mM NaHCO3, 5 mM EDTA, pH 7.5) was added to the cell pellets, and they were homogenized using a Polytron homogenizer. […]
After this reaction mixture was allowed to react for 1 hour under stirring, it was filtered under vacuum using a glass filter (GF-C), then the filter was washed 3 times with 300 μl of washing solution (50 mM Tris-HCl buffer solution pH 7.5). […] of liquid scintillator was added to the glass filter, and residual radioactivity was determined using a liquid scintillation counter.
The IC50 value of the compound was calculated from the binding inhibition rate (%), based on the definition that the binding inhibition rate (%)=(radioactivity when compound and MCH were added−radioactivity when DMSO solution was added)/(radioactivity when MCH was added−radioactivity when DMSO solution was added)×100.
With `CN(C)Cc1ccc2cc(NC(=O)c3ccc(-c4ccc(Cl)cc4)cc3)ccc2c1` [Example 1, 4′-Chloro-N-[6-[(N,N-dimethylamino)methyl]-2-naphthyl][1,1′-biphenyl]-4-carboxamide] the IC50 was 5 nM.

Tested on: not given
Experiment: not given
Conditions: not given
`CN(C)Cc1ccc2cc(NC(=O)c3ccc(-c4ccc(Cl)cc4)cc3)ccc2c1` [Example 1, 4′-Chloro-N-[6-[(N,N-dimethylamino)methyl]-2-naphthyl][1,1′-biphenyl]-4-carboxamide] showed a melting point of 230 to 231 °C.
Work on `CC1(C)CCCC(C)(C)N1Cc1ccc2cc(NC(=O)c3ccc(-c4ccc(Cl)cc4)cc3)ccc2c1` [Example 123, 4′-Chloro-N-[6-[(2,2,6,6-tetramethyl-1-piperidinyl)methyl]-2-naphthyl][1,1′-biphenyl]-4-carboxamide] yielded a melting point of 244 to 246 °C.
For `CC(C)N(Cc1ccc2cc(NC(=O)c3ccc(-c4ccc(Cl)cc4)cc3)ccc2c1)C(C)C` [Example 124, 4′-Chloro-N-[6-[(diisopropylamino)methyl]-2-naphthyl][1,1′-biphenyl]-4-carboxamide], the melting point was 246 to 250 °C.
`CC(C)N(Cc1ccc2cc(NC(=O)c3ccc(-c4ccccc4)cc3)ccc2n1)C(C)C` [Example 133, N-[2-[(Diisopropylamino)methyl]-6-quinolinyl][1-1′-biphenyl]-4-carboxamide] showed a melting point of 208 to 209 °C.
`COc1ccc(-c2ccc(C(=O)Nc3ccc4nc(CN(C(C)C)C(C)C)ccc4c3)cc2)cc1` [Example 134, N-[2-[(Diisopropylamino)methyl]-6-quinolinyl]-4′-methoxy[1-1′-biphenyl]-4-carboxamide] showed a melting point of 223 to 225 °C.
For `CC(C)N(Cc1ccc2cc(NC(=O)c3ccc(-c4ccc(F)cc4)cc3)ccc2n1)C(C)C` [Example 135, N-[2-[(Diisopropylamino)methyl]-6-quinolinyl]-4′-fluoro[1-1′-biphenyl]-4-carboxamide], the melting point was 207 to 209 °C.
With `Cc1ccc(-c2ccc(C(=O)Nc3ccc4nc(CN(C(C)C)C(C)C)ccc4c3)cc2)cc1` [Example 136, N-[2-[(Diisopropylamino)methyl]-6-quinolinyl]-4′-methyl [1-1′-biphenyl]-4-carboxamide] the melting point was 225 to 227 °C.
With `Cc1ccc(-c2ccc(C(=O)Nc3ccc4nc(CN(C(C)C)C(C)C)ccc4c3)cn2)cc1` [Example 137, N-[2-[(Diisopropylamino)methyl]-6-quinolinyl]-6-(4-methylphenyl)nicotinamide] the melting point was 211 to 213 °C.
For `CC(C)N(Cc1ccc2cc(NC(=O)c3ccc(-c4ccc(Cl)cc4)nc3)ccc2n1)C(C)C` [Example 138, 6-(4-Chlorophenyl)-N-[2-[(diisopropylamino)methyl]-6-quinolinyl]nicotinamide], the melting point was 201 to 203 °C.
`Cc1ccc(C2CCN(C(=O)Nc3ccc4nc(CN(C(C)C)C(C)C)ccc4c3)CC2)cc1` [Example 139, N-[2-[(Diisopropylamino)methyl]-6-quinolinyl]-4-(4-methylphenyl)-1-piperidinecarboxamide] gave a melting point of 184 to 186 °C.
With `CC(C)N(Cc1ccc2cc(NC(=O)N3CCC(c4ccc(Cl)cc4)CC3)ccc2n1)C(C)C` [Example 140, 4-(4-Chlorophenyl)-N-[2-[(diisopropylamino)methyl]-6-quinolinyl]-1-piperidinecarboxamide] the melting point was 201 to 203 °C.
